In the assay the test system is cells. The assay is described as follows: cell cycle effect (appended experiments). Format: cell-based. The settings on record: G2/M cell cycle.

The values below come from patent US7893082B2, “Substituted tetrahydroquinolines” (Merck Patent GmbH, priority 2005, dated 2011).

Regarding `N=C(N)c1ccc(OCCCCCOc2ccc(C(=N)N)cc2)cc1` [pentamidine], the “effect on cell cycle” value is “maintain cells in the G2/M cell cycle”.
